The text below walks through data of BindingDB's records for doi:10.1016/j.bmc.2017.03.072 (Ewha Womans University, 2017).

The target of this test is Interleukin-6 (Human, UniProt P05231). The experiment in a line: ChEBML_1684684. On the procedure: Inhibition of IL-6 signaling pathway in human HepG2 cells transfected with p-STAT3-Luc assessed as reduction in IL-6 induced STAT3 phosphorylation preincubated for 1 hr followed by IL-6 induction measured after 10 mins by immunoblot analysis
Chain of Interleukin-6 (P05231 whole entry): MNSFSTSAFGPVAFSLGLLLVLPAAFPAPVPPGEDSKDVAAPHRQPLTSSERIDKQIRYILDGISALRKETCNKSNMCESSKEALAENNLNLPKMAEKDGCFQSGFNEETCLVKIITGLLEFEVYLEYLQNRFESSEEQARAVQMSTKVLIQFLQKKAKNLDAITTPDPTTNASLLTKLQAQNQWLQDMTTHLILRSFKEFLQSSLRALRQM
What is called IC50 is the point on the concentration scale where inhibition reaches its midpoint. On to `CCc1ccc(Nc2nc3cc(N)ccc3o2)cc1`, for which 18.9 µM corresponded to half-maximal inhibition (IC50).

`C=C1C(C)=C(CCCC)C(=O)[C@]1(C)CN1c2ccccc2[C@]2(O)CCO[C@H]12` came in with an IC50 of 20.7 µM. The IC50 values of the last two compounds are within 1.5-fold of each other.

On to `CCc1ccc(Nc2nc3cc(NC(=O)c4ccccc4)ccc3o2)cc1`, for which inhibition was half-maximal at 5.8 µM (IC50).
